{"source": "EPA's ToxRefDB 2", "key": {"rat [1]": {"system": "rat", "settings": "Multigenerational reproductive toxicity study, wistar, Oral, Feed, dose end: 2 generation"}, "mouse [2]": {"system": "mouse", "settings": "Subchronic oral toxicity in rodents, cd1, Feed, dose end: 13 week, group: systemic"}, "rat [3]": {"system": "rat", "settings": "Subchronic oral toxicity in rodents, wistar, Feed, dose end: 14 week, group: systemic"}, "dog [4]": {"system": "dog", "settings": "Chronic toxicity; beagle; Oral; Feed; dose end: 52 week; group: systemic; systemic / organ weight / adrenal gland / relative to body weight + systemic / organ weight / testes / relative to body weight + systemic / …"}, "mouse [5]": {"system": "mouse", "settings": "Carcinogenicity, cd1, Oral, Feed, dose end: 18 month, group: systemic"}, "dog [6]": {"system": "dog", "settings": "Subchronic oral toxicity in nonrodent, beagle, Feed, dose end: 14 week, group: systemic"}, "rat [7]": {"system": "rat", "settings": "Subchronic oral toxicity in rodents, wistar, Feed, dose end: 13 week, group: systemic, systemic / clinical chemistry / alanine aminotransferase (alt/sgpt) / alanine aminotransferase (alt/sgpt) + systemic / clinical chemistry / …"}, "rat [8]": {"system": "rat", "settings": "Combined chronic toxicity/carcinogenicity, wistar, Oral, Feed, dose end: 120 week, group: systemic"}, "[9]": {"settings": "group: offspring, systemic / in life observation / body weight / offspring (pup) weight + systemic / in life observation / body weight / offspring (pup) …"}, "[10]": {"settings": "group: parental, systemic / organ weight / liver / absolute + systemic / organ weight / liver / relative to body weight"}, "[11]": {"settings": "systemic / pathology microscopic / liver / hypertrophy + systemic / pathology microscopic / testes / hypertrophy"}, "[12]": {"settings": "systemic / pathology microscopic / liver / hypertrophy + systemic / pathology microscopic / testes / hypertrophy + systemic / clinical …"}, "[13]": {"settings": "systemic / clinical chemistry / thyroid stimulating hormone (thyrotropin) (tsh) / thyroid stimulating hormone (=thyrotropin) (tsh)"}, "[14]": {"settings": "systemic / organ weight / adrenal gland / nos + systemic / organ weight / kidney / absolute + systemic / organ weight / kidney / relative to…"}, "[15]": {"settings": "systemic / pathology microscopic / adrenal gland / pigmentation"}, "[16]": {"settings": "systemic / clinical chemistry / alderin epoxidase / alderin epoxidase + systemic / clinical chemistry / ethoxycoumarin deethylase / …"}, "[17]": {"settings": "systemic / organ weight / adrenal gland / relative to body weight + systemic / pathology microscopic / adrenal gland / vacuolization …"}, "[18]": {"settings": "systemic / clinical chemistry / alanine aminotransferase (alt/sgpt) / alanine aminotransferase (alt/sgpt) + systemic / clinical chemistry / …"}, "[19]": {"settings": "systemic / pathology microscopic / liver / basophilic focus"}}, "data": [{"smiles": "CCC(C)(C)C(=O)OC1=C(c2ccc(Cl)cc2Cl)C(=O)OC12CCCCC2", "note": "[Spirodiclofen]", "values": [{"measurement": "LEL", "setting": "rat [1]; [9]", "value": 30.2, "unit": "mg/kg/day"}, {"measurement": "LOAEL", "setting": "rat [1]; [9]", "value": 30.2, "unit": "mg/kg/day"}, {"measurement": "NEL", "setting": "rat [1]; [9]", "value": 6.4, "unit": "mg/kg/day"}, {"measurement": "NOAEL", "setting": "rat [1]; [9]", "value": 6.4, "unit": "mg/kg/day"}, {"measurement": "LOAEL", "setting": "rat [1]; group: parental, systemic / in life observation / body weight / body weight + systemic / organ weight / liver / absolute", "value": 26.2, "unit": "mg/kg/day"}, {"measurement": "NOAEL", "setting": "rat [1]; group: parental, systemic / in life observation / body weight / body weight + systemic / organ weight / liver / absolute + systemic / in life observation / …", "value": 5.2, "unit": "mg/kg/day"}, {"measurement": "LEL", "setting": "rat [1]; [10]", "value": 5.2, "unit": "mg/kg/day"}, {"measurement": "NEL", "setting": "rat [1]; [10]", "value": "< 5.2", "unit": "mg/kg/day"}, {"measurement": "LEL", "setting": "mouse [2]; [11]", "value": 164, "unit": "mg/kg/day"}, {"measurement": "LOAEL", "setting": "mouse [2]; [11]", "value": 164, "unit": "mg/kg/day"}, {"measurement": "NEL", "setting": "mouse [2]; [12]", "value": 15, "unit": "mg/kg/day"}, {"measurement": "NOAEL", "setting": "mouse [2]; [12]", "value": 15, "unit": "mg/kg/day"}, {"measurement": "LEL", "setting": "rat [3]; [13]", "value": 8.1, "unit": "mg/kg/day"}, {"measurement": "NEL", "setting": "rat [3]; [13]", "value": "< 8.1", "unit": "mg/kg/day"}, {"measurement": "LOAEL", "setting": "rat [3]; systemic / pathology microscopic / adrenal gland / vacuolization cytoplasmic", "value": 47.1, "unit": "mg/kg/day"}, {"measurement": "NOAEL", "setting": "rat [3]; systemic / pathology microscopic / adrenal gland / vacuolization cytoplasmic + systemic / clinical chemistry / alanine aminotransferase (alt…", "value": 8.1, "unit": "mg/kg/day"}, {"measurement": "LEL", "setting": "dog [4]", "value": 4.33, "unit": "mg/kg/day"}, {"measurement": "LOAEL", "setting": "dog [4]", "value": 4.33, "unit": "mg/kg/day"}, {"measurement": "NEL", "setting": "dog [4]", "value": 1.38, "unit": "mg/kg/day"}, {"measurement": "NOAEL", "setting": "dog [4]", "value": 1.38, "unit": "mg/kg/day"}, {"measurement": "LOAEL", "setting": "mouse [5]; [14]", "value": 610, "unit": "mg/kg/day"}, {"measurement": "NOAEL", "setting": "mouse [5]; [14]", "value": 4.1, "unit": "mg/kg/day"}, {"measurement": "LEL", "setting": "mouse [5]; [15]", "value": 5.1, "unit": "mg/kg/day"}, {"measurement": "NEL", "setting": "mouse [5]; [15]", "value": "< 5.1", "unit": "mg/kg/day"}, {"measurement": "LEL", "setting": "dog [6]; [16]", "value": 7.7, "unit": "mg/kg/day"}, {"measurement": "NEL", "setting": "dog [6]; [16]", "value": "< 7.7", "unit": "mg/kg/day"}, {"measurement": "LOAEL", "setting": "dog [6]; [17]", "value": 8.4, "unit": "mg/kg/day"}, {"measurement": "NOAEL", "setting": "dog [6]; [17]", "value": "< 8.4", "unit": "mg/kg/day"}]}, {"smiles": "O=C(NC(=O)c1c(F)cccc1F)Nc1cc(Cl)c(F)c(Cl)c1F", "note": "[Teflubenzuron]", "values": [{"measurement": "LEL", "setting": "rat [7]", "value": 81.6, "unit": "mg/kg/day"}, {"measurement": "LOAEL", "setting": "rat [7]", "value": 81.6, "unit": "mg/kg/day"}, {"measurement": "NEL", "setting": "rat [7]", "value": 8, "unit": "mg/kg/day"}, {"measurement": "NOAEL", "setting": "rat [7]", "value": 8, "unit": "mg/kg/day"}, {"measurement": "LOAEL", "setting": "rat [8]; [18]", "value": 26, "unit": "mg/kg/day"}, {"measurement": "NOAEL", "setting": "rat [8]; [18]", "value": 5.1, "unit": "mg/kg/day"}, {"measurement": "LEL", "setting": "rat [8]; [19]", "value": 1.3, "unit": "mg/kg/day"}, {"measurement": "NEL", "setting": "rat [8]; [19]", "value": "< 1.3", "unit": "mg/kg/day"}]}]}
